Publication PMC5399447, “Neuroprotective pentapeptide CN-105 is associated with reduced sterile inflammation and improved functional outcomes in a traumatic brain injury murine model” (Scientific Reports, 2017)

System: 84 genes related to inflammatory and autoimmune processes
Assay: Mouse Inflammatory Response and Autoimmunity PCR Array, whole brain
Assay type: in vivo
Conditions: brain 24 h
Experimental: Frozen, pulverized whole brain tissue was processed for RNA extraction from a separate cohort of treated and untreated injured animals on days 1 post-injury(CN-105, n = 4; vehicle, n = 3; Control(sham-operated), n = 3). Total RNA was extracted from frozen, pulverized whole brain tissue using RNeasy Lipid Tissue Mini Kit(Qiagen, Valencia, CA). RNA quantity and quality was assessed with the NanoDrop ND-1000 spectrophotometer(NanoDrop Technologies, Inc., Wilmington, DE) and by agarose gel electrophoresis. Only samples with a 260/280 ratio between 1.9–2.1, and a 260/230 ratio greater than 2.0, were further processed. First strand complementary DNA(cDNA) was generated from 2 μg total RNA using the RT[2] First strand kit(SABiosciences, Frederick, MD.)
Gene expression was measured using the Mouse Inflammatory Response and Autoimmunity PCR Array(SABiosciences, Frederick, MD), which profiles the expression of 84 genes related to inflammatory and autoimmune processes. RT-PCR was performed according to manufacturer’s instructions Quality of the cDNA and PCR efficiency was verified by housekeeping genes and RT-PCR controls included in the PCR Array.
Raw RT-PCR data were analyzed using the Web-Based PCR Array Data Analysis software(SABiosciences). ΔCt values and ΔΔCt - based fold-change were calculated from raw threshold cycle data, using beta-actin and glyceraldehyde 3-phosphate dehydrogenase(GAPDH) as internal standards for normalization. Fold changes were then normalized against sham-operated controls.

Ac-VSRRR-amide [CN-105]
Il22ra2 ΔCt value, S-CN-105 (sham + CN-105 0.05 mg/kg iv): 1.1E − 04
Il22 ΔCt value, S-CN-105 (sham + CN-105 0.05 mg/kg iv): 4.7E − 04
Il23a ΔCt value, S-CN-105 (sham + CN-105 0.05 mg/kg iv): 8.0E − 05
Il23r ΔCt value, S-CN-105 (sham + CN-105 0.05 mg/kg iv): 1.5E − 04
Itgb2 ΔCt value, S-CN-105 (sham + CN-105 0.05 mg/kg iv): 1.3E − 02
Kng1 ΔCt value, S-CN-105 (sham + CN-105 0.05 mg/kg iv): 1.4E − 05
Lta ΔCt value, S-CN-105 (sham + CN-105 0.05 mg/kg iv): 2.6E − 04
Ltb ΔCt value, S-CN-105 (sham + CN-105 0.05 mg/kg iv): 1.0E − 03
Ly96 ΔCt value, S-CN-105 (sham + CN-105 0.05 mg/kg iv): 7.2E − 03
Myd88 ΔCt value, S-CN-105 (sham + CN-105 0.05 mg/kg iv): 1.1E − 03
Nfatc3 ΔCt value, S-CN-105 (sham + CN-105 0.05 mg/kg iv): 2.1E − 02
Nfkb1 ΔCt value, S-CN-105 (sham + CN-105 0.05 mg/kg iv): 3.1E − 02
Nos2 ΔCt value, S-CN-105 (sham + CN-105 0.05 mg/kg iv): 8.9E − 05
Nr3c1 ΔCt value, S-CN-105 (sham + CN-105 0.05 mg/kg iv): 4.0E − 01
Ripk2 ΔCt value, S-CN-105 (sham + CN-105 0.05 mg/kg iv): 1.1E − 02
Tirap ΔCt value, S-CN-105 (sham + CN-105 0.05 mg/kg iv): 7.8E − 03
Tlr1 ΔCt value, S-CN-105 (sham + CN-105 0.05 mg/kg iv): 1.0E − 03
Tlr2 ΔCt value, S-CN-105 (sham + CN-105 0.05 mg/kg iv): 1.3E − 03
Tlr3 ΔCt value, S-CN-105 (sham + CN-105 0.05 mg/kg iv): 2.3E − 02
Tlr4 ΔCt value, S-CN-105 (sham + CN-105 0.05 mg/kg iv): 3.5E − 03
Tlr5 ΔCt value, S-CN-105 (sham + CN-105 0.05 mg/kg iv): 6.3E − 04
Tlr6 ΔCt value, S-CN-105 (sham + CN-105 0.05 mg/kg iv): 6.2E − 04
Tlr7 ΔCt value, S-CN-105 (sham + CN-105 0.05 mg/kg iv): 2.6E − 03
Tnf ΔCt value, S-CN-105 (sham + CN-105 0.05 mg/kg iv): 3.5E − 05
Tnfsf14 ΔCt value, S-CN-105 (sham + CN-105 0.05 mg/kg iv): 1.3E − 04
Tollip ΔCt value, S-CN-105 (sham + CN-105 0.05 mg/kg iv): 3.2E − 01
Bcl6 fold change S-CN-105/S-v (sham CN-105 vs sham vehicle): 1.3
C3ar1 fold change S-CN-105/S-v (sham CN-105 vs sham vehicle): 1.2
C3 fold change S-CN-105/S-v (sham CN-105 vs sham vehicle): 1.7
C4b fold change S-CN-105/S-v (sham CN-105 vs sham vehicle): 2.0
Ccl2 fold change S-CN-105/S-v (sham CN-105 vs sham vehicle): 1.4
Ccl3 fold change S-CN-105/S-v (sham CN-105 vs sham vehicle): 1.6
Ccl4 fold change S-CN-105/S-v (sham CN-105 vs sham vehicle): 1.0
Ccl5 fold change S-CN-105/S-v (sham CN-105 vs sham vehicle): 1.2
Ccl7 fold change S-CN-105/S-v (sham CN-105 vs sham vehicle): 1.3
Ccl8 fold change S-CN-105/S-v (sham CN-105 vs sham vehicle): 2.8
Ccl11 fold change S-CN-105/S-v (sham CN-105 vs sham vehicle): 3.2
Ccl12 fold change S-CN-105/S-v (sham CN-105 vs sham vehicle): 1.8
Ccl17 fold change S-CN-105/S-v (sham CN-105 vs sham vehicle): 1.6
Ccl19 fold change S-CN-105/S-v (sham CN-105 vs sham vehicle): 1.5
Ccl20 fold change S-CN-105/S-v (sham CN-105 vs sham vehicle): 4.4
Ccl22 fold change S-CN-105/S-v (sham CN-105 vs sham vehicle): 3.1
Ccl24 fold change S-CN-105/S-v (sham CN-105 vs sham vehicle): 3.0
Ccl25 fold change S-CN-105/S-v (sham CN-105 vs sham vehicle): 2.6
Ccr1 fold change S-CN-105/S-v (sham CN-105 vs sham vehicle): −1.1
Ccr2 fold change S-CN-105/S-v (sham CN-105 vs sham vehicle): 2.1
Ccr3 fold change S-CN-105/S-v (sham CN-105 vs sham vehicle): 1.2
Ccr4 fold change S-CN-105/S-v (sham CN-105 vs sham vehicle): 1.5
Ccr7 fold change S-CN-105/S-v (sham CN-105 vs sham vehicle): 1.8
Cd40 fold change S-CN-105/S-v (sham CN-105 vs sham vehicle): 1.5
Cebpb fold change S-CN-105/S-v (sham CN-105 vs sham vehicle): 1.6
Csf1 fold change S-CN-105/S-v (sham CN-105 vs sham vehicle): 1.7
Cxcl1 fold change S-CN-105/S-v (sham CN-105 vs sham vehicle): 2.7
Cxcl2 fold change S-CN-105/S-v (sham CN-105 vs sham vehicle): 4.2
Cxcl3 fold change S-CN-105/S-v (sham CN-105 vs sham vehicle): 0.8
Cxcl5 fold change S-CN-105/S-v (sham CN-105 vs sham vehicle): 1.7
Cxcl9 fold change S-CN-105/S-v (sham CN-105 vs sham vehicle): 1.5
Cxcl10 fold change S-CN-105/S-v (sham CN-105 vs sham vehicle): 2.1
Cxcl11 fold change S-CN-105/S-v (sham CN-105 vs sham vehicle): 3.8
Cxcr4 fold change S-CN-105/S-v (sham CN-105 vs sham vehicle): 1.5
Fasl fold change S-CN-105/S-v (sham CN-105 vs sham vehicle): 0.9
Flt3l fold change S-CN-105/S-v (sham CN-105 vs sham vehicle): 1.5
Fos fold change S-CN-105/S-v (sham CN-105 vs sham vehicle): 1.6
Hdac4 fold change S-CN-105/S-v (sham CN-105 vs sham vehicle): 1.5
Ifng fold change S-CN-105/S-v (sham CN-105 vs sham vehicle): 0.8
Il1a fold change S-CN-105/S-v (sham CN-105 vs sham vehicle): 1.4
Il1b fold change S-CN-105/S-v (sham CN-105 vs sham vehicle): 1.8
Il1r1 fold change S-CN-105/S-v (sham CN-105 vs sham vehicle): 2.6
Il1rap fold change S-CN-105/S-v (sham CN-105 vs sham vehicle): 1.5
Il6 fold change S-CN-105/S-v (sham CN-105 vs sham vehicle): −1.3
Il6ra fold change S-CN-105/S-v (sham CN-105 vs sham vehicle): 1.5
Il7 fold change S-CN-105/S-v (sham CN-105 vs sham vehicle): 3.1
Il8rb fold change S-CN-105/S-v (sham CN-105 vs sham vehicle): 7.3
Il10 fold change S-CN-105/S-v (sham CN-105 vs sham vehicle): 5.7
Il10rb fold change S-CN-105/S-v (sham CN-105 vs sham vehicle): 2.0
Il18 fold change S-CN-105/S-v (sham CN-105 vs sham vehicle): 2.0
Il22 fold change S-CN-105/S-v (sham CN-105 vs sham vehicle): 10.8
Il22ra2 fold change S-CN-105/S-v (sham CN-105 vs sham vehicle): 4.8
Il23a fold change S-CN-105/S-v (sham CN-105 vs sham vehicle): 3.0
Il23r fold change S-CN-105/S-v (sham CN-105 vs sham vehicle): 1.4
Itgb2 fold change S-CN-105/S-v (sham CN-105 vs sham vehicle): 2.5
Lta fold change S-CN-105/S-v (sham CN-105 vs sham vehicle): 2.3
Ltb fold change S-CN-105/S-v (sham CN-105 vs sham vehicle): 2.0
Ly96 fold change S-CN-105/S-v (sham CN-105 vs sham vehicle): 1.9
Myd88 fold change S-CN-105/S-v (sham CN-105 vs sham vehicle): 1.5
Nfatc3 fold change S-CN-105/S-v (sham CN-105 vs sham vehicle): 2.4
Nfkb1 fold change S-CN-105/S-v (sham CN-105 vs sham vehicle): 1.8
Nos2 fold change S-CN-105/S-v (sham CN-105 vs sham vehicle): 1.0
Nr3c1 fold change S-CN-105/S-v (sham CN-105 vs sham vehicle): 2.0
Ripk2 fold change S-CN-105/S-v (sham CN-105 vs sham vehicle): 1.5
Tirap fold change S-CN-105/S-v (sham CN-105 vs sham vehicle): 2.1
Tlr1 fold change S-CN-105/S-v (sham CN-105 vs sham vehicle): 2.2
Tlr2 fold change S-CN-105/S-v (sham CN-105 vs sham vehicle): 1.4
Tlr3 fold change S-CN-105/S-v (sham CN-105 vs sham vehicle): 1.6
Tlr4 fold change S-CN-105/S-v (sham CN-105 vs sham vehicle): 1.1
Tlr5 fold change S-CN-105/S-v (sham CN-105 vs sham vehicle): 0.9
Tlr6 fold change S-CN-105/S-v (sham CN-105 vs sham vehicle): 1.3
Tlr7 fold change S-CN-105/S-v (sham CN-105 vs sham vehicle): 1.6
Tnf fold change S-CN-105/S-v (sham CN-105 vs sham vehicle): 1.3
Tnfsf14 fold change S-CN-105/S-v (sham CN-105 vs sham vehicle): 5.2
Tollip fold change S-CN-105/S-v (sham CN-105 vs sham vehicle): 1.9
downregulation of gene expression, sham CN-105 vs sham vehicle (sham mice, 0.05 mg/kg): No downregulation of gene expression was observed
